From US8993756B2 (Merck Sharp & Dohme Corp., priority 2011, dated 2015) come the findings set out here.

One assay deals with JAK3 (Homo sapiens (Human), UniProt P52333). Put plainly: Jak Biochemical HTRF Assay (JAK3). The settings on record: recombinant GST-tagged catalytic domain, [ATP] 2.9 μM. On the procedure:
(§1) Biological Assays Jak Biochemical HTRF Assay Protocol
The ability of compounds to inhibit the activity of JAK1, JAK2, JAK3, and Tyk2 was measured using a recombinant purified GST-tagged catalytic domain for each enzyme (Invitrogen JAK1 #M4290, JAK2 #M4290, JAK3 #M4290, Tyk2 #M4290) in an HTRF format biochemical assay. […] Subsequent reagent additions employed an Agilent Bravo. […] After equilibration, 2 μL of 10×ATP in 1× assay buffer was added to initiate the kinase reaction and the plates were shaken and then incubated at room temperature for 120 minutes. At the end of the incubation, 20 μL of 2× stop buffer (streptavidin-Dylight 650 (Thermo #84547B100 mL), Eu-tagged pY20 antibody (Perkin Elmer #AD0067), EDTA, HEPES, and Triton) was added to quench the reaction. […] After normalization to untreated controls, the percent inhibition of the HTRF signal at each compound concentration was calculated. The plot of percent inhibition versus the log of compound concentration was fit with a 4-parameter dose response equation to calculate IC50 values.

The target in a further assay is JAK2 (Homo sapiens (Human), UniProt O60674). Kind of assay: Jak Biochemical HTRF Assay (JAK2). The settings on record: recombinant GST-tagged catalytic domain, [ATP] 8.5 μM. As for the experimental part: as §1
Chain of JAK2 (O60674 849-1124): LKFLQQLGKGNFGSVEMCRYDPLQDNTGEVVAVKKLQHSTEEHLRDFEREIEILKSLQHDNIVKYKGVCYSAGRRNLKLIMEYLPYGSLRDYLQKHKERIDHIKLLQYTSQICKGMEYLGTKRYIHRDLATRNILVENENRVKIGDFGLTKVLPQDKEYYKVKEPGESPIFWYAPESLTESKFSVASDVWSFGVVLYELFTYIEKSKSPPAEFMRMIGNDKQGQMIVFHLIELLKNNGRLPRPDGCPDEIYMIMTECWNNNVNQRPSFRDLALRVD
The ability of compounds to inhibit the activity of JAK1, JAK2, JAK3, and Tyk2 was measured using a recombinant purified GST-tagged catalytic domain for each enzyme (Invitrogen JAK1 #M4290, JAK2 #M4290, JAK3 #M4290, Tyk2 #M4290) in an HTRF format biochemical assay. […] The basic assay protocol is as follows: First, 250 nL of diluted compounds in DMSO were dispensed into the wells of a dry 384-well Black plate (Greiner #781076) using a Labcyte Echo 555 acoustic dispenser. Subsequent reagent additions employed an Agilent Bravo. Next, 18 μL of 1.11× enzyme and 1.11× substrate in 1× assay buffer (Invitrogen kinase buffer # PV3189, 2 mM DTT, 0.05% BSA) were added to the wells and shaken and then preincubated for 30 minutes at room temperature to allow compound binding to equilibrate. After equilibration, 2 μL of 10×ATP in 1× assay buffer was added to initiate the kinase reaction and the plates were shaken and then incubated at room temperature for 120 minutes. At the end of the incubation, 20 μL of 2× stop buffer (streptavidin-Dylight 650 (Thermo #84547B100 mL), Eu-tagged pY20 antibody (Perkin Elmer #AD0067), EDTA, HEPES, and Triton) was added to quench the reaction. Plates were shaken and centrifuged and then incubated 60 minutes at room temperature and then read on a Perkin Elmer Envision (λex=337 nm, λem=665 and 615 nm, TRF delay time=20 μs). HTRF signal=10,000*665 nm reading 615 nm reading. After normalization to untreated controls, the percent inhibition of the HTRF signal at each compound concentration was calculated. The plot of percent inhibition versus the log of compound concentration was fit with a 4-parameter dose response equation to calculate IC50 values.

Chain of JAK3 (P52333 822-1111): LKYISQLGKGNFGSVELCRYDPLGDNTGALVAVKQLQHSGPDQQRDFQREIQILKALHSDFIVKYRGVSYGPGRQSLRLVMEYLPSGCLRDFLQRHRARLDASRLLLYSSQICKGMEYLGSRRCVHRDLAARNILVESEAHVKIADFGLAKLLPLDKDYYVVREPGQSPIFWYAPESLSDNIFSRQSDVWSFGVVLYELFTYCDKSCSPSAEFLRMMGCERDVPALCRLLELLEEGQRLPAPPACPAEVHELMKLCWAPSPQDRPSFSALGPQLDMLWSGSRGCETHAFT

In the case of `CCOC(=O)c1c[nH]c2ncnc(-c3ccc(C(=O)N(C)C)cc3)c12` [Example 1-13, ethyl 4-[4-(dimethylcarbamoyl)phenyl]-7H-pyrrolo[2,3-d]pyrimidine-5-carboxylate], the 50% inhibitory concentration (IC50) (as a rule, the concentration that inhibits the measured activity by half) was 10 to 500 nM at JAK3 (given as range class) and greater than 500 nM at JAK2 (given as range class).
Take `CCOC(=O)c1c[nH]c2ncnc(-c3ccncc3)c12` [Example 1-14, ethyl 4-pyridin-4-yl-7H-pyrrolo[2,3-d]pyrimidine-5-carboxylate]: the IC50 was 10 to 500 nM on JAK3 (given as range class) and greater than 500 nM at JAK2 (given as range class).
On to `CCOC(=O)c1c[nH]c2ncnc(-c3ccc(OC)cc3)c12` [Example 1-15, ethyl 4-(4-methoxyphenyl)-7H-pyrrolo[2,3-d]pyrimidine-5-carboxylate], for which the IC50 on JAK3 stood at 5.7 nM; at JAK2, 134 nM.
`CCOC(=O)c1c[nH]c2ncnc(-c3cccc(OC)c3)c12` [Example 1-17, ethyl 4-(3-methoxyphenyl)-7H-pyrrolo[2,3-d]pyrimidine-5-carboxylate]: the IC50 at JAK3 (given as range class) and at JAK2 (given as range class) was 10 to 500 nM in each case.
With `CCOC(=O)c1c[nH]c2ncnc(C3=CCN(C(=O)OC(C)(C)C)CC3)c12` [Example 1-18, ethyl 4-[1-(tert-butoxycarbonyl)-1,2,3,6-tetrahydropyridin-4-yl]-7H-pyrrolo[2,3-d]pyrimidine-5-carboxylate], the IC50 on JAK3 (given as range class) and on JAK2 (given as range class) was 10 to 500 nM in each case.
`CCOC(=O)c1c[nH]c2ncnc(C3=CCCN(C(=O)OC(C)(C)C)C3)c12` [Example 1-19, ethyl 4-[1-(tert-butoxycarbonyl)-1,2,5,6-tetrahydropyridin-3-yl]-7H-pyrrolo[2,3-d]pyrimidine-5-carboxylate]: the 50% inhibitory concentration (IC50) at JAK3 (given as range class) is 10 to 500 nM; at JAK2 (given as range class), greater than 500 nM.
The corresponding values for `CCOC(=O)c1c[nH]c2ncnc(C3=CCN(C(=O)OC(C)(C)C)C3)c12` [Example 1-20, ethyl 4-[1-(tert-butoxycarbonyl)-2,5-dihydro-1H-pyrrol-3-yl]-7H-pyrrolo[2,3-d]pyrimidine-5-carboxylate] are 10 to 500 nM and greater than 500 nM.
With `CCOC(=O)c1c[nH]c2ncnc(-c3cccc(OCC(F)(F)F)c3)c12` [Example 1-21, ethyl 4-[3-(2,2,2-trifluoroethoxy)phenyl]-7H-pyrrolo[2,3-d]pyrimidine-5-carboxylate], the IC50 turned out to be 3.5 nM on JAK3 and 73 nM on JAK2.
The corresponding values for `CCOC(=O)c1c[nH]c2ncnc(-c3ccc(C)c(N)c3)c12` [Example 1-22, ethyl 4-(3-amino-4-methylphenyl)-7H-pyrrolo[2,3-d]pyrimidine-5-carboxylate] are 4.6 nM and 78 nM.
Turning to `CCOC(=O)c1c[nH]c2ncnc(C3=CCCCC3)c12` [Example 1-23, ethyl 4-cyclohex-1-en-1-yl-7H-pyrrolo[2,3-d]pyrimidine-5-carboxylate], the IC50 on JAK3 turned out to be 6 nM; on JAK2 it was 62 nM.
On to `CCOC(=O)c1c[nH]c2ncnc(-c3ccc(Cl)c(N)c3)c12` [Example 1-24, ethyl 4-(3-amino-4-chlorophenyl)-7H-pyrrolo[2,3-d]pyrimidine-5-carboxylate], for which the results for the IC50 on JAK3 and on JAK2 were 7.5 nM and 125 nM, respectively.
On to `CCOC(=O)c1c[nH]c2ncnc(-c3ccc4sc(C)nc4c3)c12` [Example 1-25, ethyl 4-(2-methyl-1,3-benzothiazol-5-yl)-7H-pyrrolo[2,3-d]pyrimidine-5-carboxylate], for which the half-inhibitory concentration (IC50) at JAK3 (given as range class) and on JAK2 (given as range class) was 10 to 500 nM in each case.
For `CCOC(=O)c1c[nH]c2ncnc(-c3cccc(OC(F)(F)F)c3)c12` [Example 1-26, ethyl 4-[3-(trifluoromethoxy)phenyl]-7H-pyrrolo[2,3-d]pyrimidine-5-carboxylate], the concentration for half-maximal inhibition (IC50) at JAK3 (given as range class) and on JAK2 (given as range class) was 10 to 500 nM throughout.
For `CCOC(=O)c1c[nH]c2ncnc(-c3cnn(C)c3)c12` [Example 1-27, ethyl 4-(1-methyl-1H-pyrazol-4-yl)-7H-pyrrolo[2,3-d]pyrimidine-5-carboxylate], the figures for the IC50 at JAK3 (given as range class) and on JAK2 (given as range class) were 10 to 500 nM and greater than 500 nM, respectively.
